Counter-ions that a name gives are not always drawn.
Legend:
Type in all cases: cell-based
human TLR7 = molecular target: T1, human TLR7 (Homo sapiens, UniProt Q9NYK1); assay: TLR7 inhibition reporter assay (HEK-Blue cells, SEAP reporter, gardiquimod stimulation); settings: HEK-Blue cells overexpressing human TLR7, SEAP reporter, gardiquimod 7.5 μM
T1 construct: host or cells: HEK-Blue cells (HEK293-derived reporter line)
T1 sequence (Q9NYK1 27-1049): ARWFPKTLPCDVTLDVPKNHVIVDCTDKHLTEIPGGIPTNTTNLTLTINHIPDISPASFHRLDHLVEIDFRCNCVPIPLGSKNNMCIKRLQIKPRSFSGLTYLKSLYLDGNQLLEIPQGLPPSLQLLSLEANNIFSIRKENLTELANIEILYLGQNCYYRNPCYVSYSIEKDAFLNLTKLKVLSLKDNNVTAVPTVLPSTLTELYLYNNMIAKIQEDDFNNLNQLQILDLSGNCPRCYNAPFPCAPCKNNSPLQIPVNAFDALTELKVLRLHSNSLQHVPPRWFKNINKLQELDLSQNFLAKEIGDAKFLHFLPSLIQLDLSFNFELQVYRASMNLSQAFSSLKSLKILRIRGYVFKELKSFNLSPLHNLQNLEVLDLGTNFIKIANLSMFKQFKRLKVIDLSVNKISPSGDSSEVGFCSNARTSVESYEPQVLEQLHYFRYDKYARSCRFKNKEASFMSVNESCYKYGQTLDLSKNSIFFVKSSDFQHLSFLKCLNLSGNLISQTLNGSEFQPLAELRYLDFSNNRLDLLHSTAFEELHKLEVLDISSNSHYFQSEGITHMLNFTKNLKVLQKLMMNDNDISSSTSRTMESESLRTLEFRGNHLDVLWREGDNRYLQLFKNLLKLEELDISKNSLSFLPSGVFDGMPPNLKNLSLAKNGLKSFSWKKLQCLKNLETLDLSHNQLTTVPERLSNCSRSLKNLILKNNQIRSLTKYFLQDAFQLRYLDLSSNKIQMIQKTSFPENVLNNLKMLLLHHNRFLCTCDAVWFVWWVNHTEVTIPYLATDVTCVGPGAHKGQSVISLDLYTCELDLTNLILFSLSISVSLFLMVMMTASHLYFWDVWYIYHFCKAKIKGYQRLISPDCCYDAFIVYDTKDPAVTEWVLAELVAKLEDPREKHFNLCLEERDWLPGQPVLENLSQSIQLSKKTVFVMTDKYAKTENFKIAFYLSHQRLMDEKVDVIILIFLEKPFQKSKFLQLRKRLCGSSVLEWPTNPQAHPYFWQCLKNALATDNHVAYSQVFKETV
Summary of the method: (§1)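 Read-out is SEAP activity in HEK-Blue detection medium after 22 h at 37 °C, converted to percent inhibition against agonist-plus-DMSO and reference-inhibitor controls. Cells saw compound (0.05 nM–50 μM, 30 min, room temperature) before gardiquimod 7.5 μM, R848 15.9 μM or ODN2006 5 nM for TLR7, TLR8 and TLR9, respectively.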

human TLR8 = molecular target: T2, human TLR8 (Homo sapiens, UniProt Q9NR97); assay: TLR8 inhibition reporter assay (HEK-Blue cells, SEAP reporter, R848 stimulation); settings: HEK-Blue cells overexpressing human TLR8, SEAP reporter, R848 15.9 μM
T2 construct: host or cells: HEK-Blue cells (HEK293-derived reporter line)
T2 sequence (Q9NR97 27-1041): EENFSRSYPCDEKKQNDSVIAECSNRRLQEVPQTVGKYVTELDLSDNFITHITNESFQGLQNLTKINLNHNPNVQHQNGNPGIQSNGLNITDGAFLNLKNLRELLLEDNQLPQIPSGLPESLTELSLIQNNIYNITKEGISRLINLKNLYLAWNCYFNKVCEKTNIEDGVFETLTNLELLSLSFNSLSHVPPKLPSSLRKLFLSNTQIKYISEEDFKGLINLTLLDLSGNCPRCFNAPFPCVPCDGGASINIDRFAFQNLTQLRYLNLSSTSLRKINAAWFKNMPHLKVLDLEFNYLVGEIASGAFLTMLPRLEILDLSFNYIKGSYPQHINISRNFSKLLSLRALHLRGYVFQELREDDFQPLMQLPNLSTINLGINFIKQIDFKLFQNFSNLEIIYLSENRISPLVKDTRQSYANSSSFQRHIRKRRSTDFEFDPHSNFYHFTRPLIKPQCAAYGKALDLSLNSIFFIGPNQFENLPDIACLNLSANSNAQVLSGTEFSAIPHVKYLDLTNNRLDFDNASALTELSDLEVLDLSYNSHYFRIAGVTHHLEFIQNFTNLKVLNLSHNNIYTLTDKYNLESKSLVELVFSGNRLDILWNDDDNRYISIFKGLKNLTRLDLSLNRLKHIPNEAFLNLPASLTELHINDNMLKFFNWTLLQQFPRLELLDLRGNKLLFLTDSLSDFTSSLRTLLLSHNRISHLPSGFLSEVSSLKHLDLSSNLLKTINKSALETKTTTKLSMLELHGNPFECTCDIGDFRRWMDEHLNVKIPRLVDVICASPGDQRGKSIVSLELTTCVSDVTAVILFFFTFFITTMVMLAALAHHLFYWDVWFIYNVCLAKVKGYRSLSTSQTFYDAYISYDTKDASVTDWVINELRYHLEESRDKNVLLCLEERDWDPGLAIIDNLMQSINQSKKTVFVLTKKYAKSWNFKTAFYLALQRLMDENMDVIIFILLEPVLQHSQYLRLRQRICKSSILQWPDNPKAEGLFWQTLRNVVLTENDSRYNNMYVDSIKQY
Summary of the method: as §1

human TLR9 = molecular target: T3, human TLR9 (Homo sapiens, UniProt Q9NR96); assay: TLR9 inhibition reporter assay (HEK-Blue cells, SEAP reporter, ODN2006 stimulation); settings: HEK-Blue cells overexpressing human TLR9, SEAP reporter, ODN2006 5 nM
T3 construct: host or cells: HEK-Blue cells (HEK293-derived reporter line)
T3 sequence (Q9NR96 26-1032): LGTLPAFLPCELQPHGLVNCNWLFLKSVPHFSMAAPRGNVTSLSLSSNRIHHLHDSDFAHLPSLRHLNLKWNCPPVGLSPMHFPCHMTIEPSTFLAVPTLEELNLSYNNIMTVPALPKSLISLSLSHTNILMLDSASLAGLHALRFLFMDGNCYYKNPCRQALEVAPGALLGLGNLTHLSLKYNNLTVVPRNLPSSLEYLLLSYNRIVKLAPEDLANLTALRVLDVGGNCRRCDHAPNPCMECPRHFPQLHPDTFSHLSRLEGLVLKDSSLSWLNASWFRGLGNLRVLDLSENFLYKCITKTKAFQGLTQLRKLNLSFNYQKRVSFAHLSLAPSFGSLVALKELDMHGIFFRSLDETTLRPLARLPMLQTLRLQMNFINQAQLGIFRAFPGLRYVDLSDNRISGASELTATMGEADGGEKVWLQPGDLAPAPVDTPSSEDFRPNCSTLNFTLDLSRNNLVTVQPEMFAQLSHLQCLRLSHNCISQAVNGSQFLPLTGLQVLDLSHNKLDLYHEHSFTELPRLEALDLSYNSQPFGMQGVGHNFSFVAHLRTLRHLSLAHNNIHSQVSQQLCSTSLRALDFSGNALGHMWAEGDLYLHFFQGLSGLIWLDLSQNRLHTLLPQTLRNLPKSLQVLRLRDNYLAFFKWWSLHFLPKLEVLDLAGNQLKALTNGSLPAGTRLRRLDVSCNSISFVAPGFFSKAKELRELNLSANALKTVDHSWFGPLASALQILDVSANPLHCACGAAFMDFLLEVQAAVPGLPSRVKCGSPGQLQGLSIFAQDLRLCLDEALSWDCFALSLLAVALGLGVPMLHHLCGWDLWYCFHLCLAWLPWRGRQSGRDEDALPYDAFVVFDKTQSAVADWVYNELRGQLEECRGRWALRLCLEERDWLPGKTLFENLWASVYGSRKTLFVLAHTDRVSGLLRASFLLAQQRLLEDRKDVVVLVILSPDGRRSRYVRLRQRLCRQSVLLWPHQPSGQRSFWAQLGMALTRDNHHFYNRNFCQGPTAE
Summary of the method: as §1

Row | IC50 (human TLR7) | IC50 (human TLR8) | IC50 (human TLR9) | SMILES
1 | 1 to 50 µM | 0.1 to 1 µM | 1 to 50 µM | CCc1c(-c2ccc3[nH]c(=O)[nH]c3c2)[nH]c2ccc(C3CCNCC3)cc12 [Example 166, 5-(3-ethyl-5-(piperidin-4-yl)-1H-indol-2-yl)-1,3-dihydro-2H-benzo[d]imidazol-2-one]
2 | > 50 µM | > 3.13 µM | 0.1 to 1 µM | CNCCN1CCC(c2ccc3[nH]c(-c4ccc5c(ccn5C)c4)c(C)c3c2)CC1 [Example 672, 2-(4-(1′,3-dimethyl-1H,1′H-[2,5′-biindol]-5-yl)piperidin-1-yl)-N-methylethan-1-amine]
3 | < 0.1 µM | < 0.1 µM | 1 to 50 µM | CC(C)c1c(-c2ccc3ncsc3n2)[nH]c2ccc(C3CCNCC3)cc12 [Example 209, 5-(3-isopropyl-5-(piperidin-4-yl)-1H-indol-2-yl) thiazolo[5,4-b]pyridine]
4 | 0.1 to 1 µM | 0.1 to 1 µM | 0.1 to 1 µM | CC(C)c1c(-c2cnc3[nH]ccc3c2)[nH]c2ccc(C3CCN(C4CCN(C)CC4)CC3)cc12 [Example 802, 5-(3-isopropyl-5-(1′-methyl-[1,4′-bipiperidin]-4-yl)-1H-indol-2-yl)-1H-pyrrolo[2,3-b]pyridine]
5 | < 0.1 µM | < 0.1 µM | 1 to 50 µM | Cc1cc(-c2[nH]c3ccc(C4CCN(C5CCOCC5)CC4)cc3c2C(C)C)nn2ncnc12 [Example 686, 6-(3-isopropyl-5-(1-(tetrahydro-2H-pyran-4-yl)piperidin-4-yl)-1H-indol-2-yl)-8-methyl-[1,2,4]triazolo[1,5-b]pyridazine]
6 | < 0.1 µM | < 0.1 µM | 1 to 50 µM | Cc1cc(-c2[nH]c3ccc(C4CCNCC4)cc3c2C(C)C)nc2scnc12 [Example 101, 5-(3-isopropyl-5-(piperidin-4-yl)-1H-indol-2-yl)-7-methylthiazolo[5,4-b]pyridine]
7 | > 50 µM | 1 to 50 µM | 1 to 50 µM | CCc1c(-c2cnc3cc(C)cnn23)[nH]c2ccc(C3CCNCC3)cc12 [Example 108, 3-(3-ethyl-5-(piperidin-4-yl)-1H-indol-2-yl)-7-methylimidazo[1,2-b]pyridazine]
8 | < 0.1 µM | < 0.1 µM | 1 to 50 µM | CC(C)c1c(-c2ccnc3[nH]ncc23)[nH]c2ccc(C3CCN(C(=O)CNCC(C)(C)C)CC3)cc12 [Example 589, 1-(4-(3-isopropyl-2-(1H-pyrazolo[3,4-b]pyridin-4-yl)-1H-indol-5-yl)piperidin-1-yl)-2-(neopentylamino)ethan-1-one]
9 | < 0.1 µM | < 0.1 µM | 1 to 50 µM | Cc1cc(-c2[nH]c3ccc(C4CCN(CC(=O)N(C)C)CC4)cc3c2C(C)C)c2ccccc2n1 [Example 327, 2-(4-(3-isopropyl-2-(2-methylquinolin-4-yl)-1H-indol-5-yl)piperidin-1-yl)-N,N-dimethylacetamide]
10 | < 0.1 µM | < 0.1 µM | 1 to 50 µM | Cc1ccc(-c2[nH]c3ccc(C4CCNCC4)cc3c2C(C)C)c2ncnn12 [Example 152, 8-(3-isopropyl-5-(piperidin-4-yl)-1H-indol-2-yl)-5-methyl-[1,2,4]triazolo[1,5-a]pyridine]
11 | < 0.1 µM | < 0.1 µM | 1 to 50 µM | Cc1cc(-c2[nH]c3ccc(C4CCN(CC(C)(C)O)CC4)cc3c2C(C)C)cn2nnnc12 [Example 745, 1-(4-(3-isopropyl-2-(8-methyltetrazolo[1,5-a]pyridin-6-yl)-1H-indol-5-yl)piperidin-1-yl)-2-methylpropan-2-ol, TFA]
12 | < 0.1 µM | 0.1 to 1 µM | 0.1 to 1 µM | COc1cc(-c2[nH]c3ccc(C4CCNCC4)cc3c2C(C)C)cc2nc(C)cn12 [Example 162, 7-(3-isopropyl-5-(piperidin-4-yl)-1H-indol-2-yl)-5-methoxy-2-methylimidazo[1,2-a]pyridine]
13 | 0.1 to 1 µM | 0.1 to 1 µM | > 50 µM | CC(C)c1c(-c2ccnc3[nH]ncc23)[nH]c2ccc(C3CCN(C(=O)CCC(=O)N(C)C)CC3)cc12 [Example 613, 4-(4-(3-isopropyl-2-(1H-pyrazolo[3,4-b]pyridin-4-yl)-1H-indol-5-yl)piperidin-1-yl)-N,N-dimethyl-4-oxobutanamide]
14 | 1 to 50 µM | 1 to 50 µM | 1 to 50 µM | Cc1c(-c2ccnc3[nH]cc(O)c23)[nH]c2ccc(C3CCNCC3)cc12 [Example 212, 4-(3-methyl-5-(piperidin-4-yl)-1H-indol-2-yl)-1H-pyrrolo[2,3-b]pyridin-3-ol]
15 | < 0.1 µM | < 0.1 µM | 0.1 to 1 µM | COc1cc(-c2[nH]c3ccc(C4CCN(CC(=O)N(C)C)CC4)cc3c2C(C)C)cn2ccnc12 [Example 433, 2-(4-(3-isopropyl-2-(8-methoxyimidazo[1,2-a]pyridin-6-yl)-1H-indol-5-yl)piperidin-1-yl)-N,N-dimethylacetamide]

— US11739098B2 (BRISTOL-MYERS SQUIBB COMPANY, priority 2017, dated 2023)
